Reference: patent publication US11840686B2, “Modulation of prekallikrein (PKK) expression” (Ionis Pharmaceuticals, Inc., priority 2013, dated 2023)
Strand notation (5' to 3'): a small letter for the sugar, then the base; units joined by * are phosphorothioate-linked, units joined directly phosphodiester-linked; [ ] holds rarer units or linkages, { } end groups; capitals alone tell only the bases. e = 2'-O-(2-methoxyethyl) (MOE); [5mC] = 5-methylcytosine; d = 2'-deoxy (DNA)

System: human PKK mRNA
Assay: Antisense inhibition of human PKK mRNA in HepaRG cells, 5,000 nM (Example 2)
Type: cell-based
Summary of the method: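 qRT-PCR (RTS3454) read-out, RIBOGREEN-normalized; % inhibition vs untreated cells. HepaRG, 20,000 cells/well, electroporation, 5,000 nM ASO, ~24 h.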

[1] = human PKK mRNA, HepaRG cells, 5-10-5 motif oligonucleotides targeting SEQ ID NO: 1 and 10
[2] = HepaRG cells, electroporation with 5,000 nM antisense oligonucleotide, approximately 24 hours, PKK mRNA by RT-PCR (RTS3454), relative to untreated control cells, Table 5 experiment
[3] = HepaRG cells, electroporation, 5,000 nM antisense oligonucleotide, approx. 24 hours, primer probe set RTS3454, relative to untreated control cells, Table 12
[4] = HepaRG cells, 5,000 nM antisense oligonucleotide, 5-10-5 gapmers, Table 17
[5] = human PKK mRNA in HepaRG cells, 5-10-5 gapmers, Table 14
[6] = HepaRG cells, electroporation, 5,000 nM antisense oligonucleotide, approx. 24 hours, primer probe set RTS3454, relative to untreated control cells, Table 11
[7] = Table 9 experiment, HepaRG cells, 20,000 cells per well, electroporation with 5,000 nM antisense oligonucleotide, approx. 24 hours, PKK mRNA by RT-PCR (RTS3454), relative to untreated control cells
[8] = Table 10 experiment, HepaRG cells, 20,000 cells per well, electroporation with 5,000 nM antisense oligonucleotide, approx. 24 hours, PKK mRNA by RT-PCR (RTS3454), relative to untreated control cells
[9] = Table 7, HepaRG cells, electroporation with 5,000 nM antisense oligonucleotide, approx. 24 hours, PKK mRNA by RT-PCR (RTS3454), relative to untreated control cells
[10] = Table 13, human PKK mRNA in HepaRG cells, 5-10-5 gapmers
[11] = HepaRG cells, electroporation with 5,000 nM antisense oligonucleotide, approximately 24 hours, PKK mRNA by RT-PCR (RTS3454), relative to untreated control cells, Table 6 experiment

## 547663 (eT*eA*e[5mC]*e[5mC]*eT*dA*dT*dA*dA*d[5mC]*dT*dA*dT*dA*dA*e[5mC]*eA*eG*eT*eA; antisense) [compound 547663]
[1]
  % inhibition: 10%

## 548772 (antisense eT*eA*eT*eA*dA*d[5mC]*dA*dG*dT*dA*dT*d[5mC]*dA*e[5mC]*eT*eG*eT) [compound 548772]
Human PKK mRNA, HepaRG cells, 5,000 nM antisense oligonucleotide, Table 18
  % inhibition: 0%

## 547287 (antisense eG*eT*e[5mC]*eA*eG*dA*d[5mC]*dA*dT*d[5mC]*d[5mC]*dA*d[5mC]*dA*dG*eG*eA*eA*eA*e[5mC]) [compound 547287]
[2]
  % inhibition: 69%

## 547538 (antisense e[5mC]*e[5mC]*eA*eG*e[5mC]*dA*dG*dA*dA*dA*dT*d[5mC]*d[5mC]*dT*dG*eT*eG*e[5mC]*eA*eT) [compound 547538]
[3]
  % inhibition: 77%

## 546698 (eT*eG*e[5mC]*eA*eG*dA*dG*dT*dG*dT*d[5mC]*dA*dT*d[5mC]*dT*eG*e[5mC]*eG*eA*eA; antisense) [compound 546698]
[3]
  % inhibition: 59%

## 547774 (antisense eG*eA*eG*eA*e[5mC]*dA*dG*dT*dT*dT*dG*dG*d[5mC]*dA*dA*eG*e[5mC]*eT*eA*e[5mC]) [compound 547774]
[4]
  % inhibition: 46%

## 547628 (antisense e[5mC]*eT*e[5mC]*eT*eA*d[5mC]*d[5mC]*dT*dA*dT*dA*dA*d[5mC]*dT*d[5mC]*eT*eA*eA*e[5mC]*eA) [compound 547628]
[1]
  % inhibition: 34%

## 547598 (antisense eA*e[5mC]*eT*eA*eT*dA*dA*d[5mC]*dA*dA*dT*dA*dT*d[5mC]*dA*e[5mC]*eT*eG*eT*e[5mC]) [compound 547598]
[5]
  % inhibition: 59%

## 546382 (antisense e[5mC]*eA*eA*eA*eG*dA*dA*dG*dA*dT*dG*d[5mC]*d[5mC]*dA*d[5mC]*eT*e[5mC]*eT*e[5mC]*e[5mC]) [compound 546382]
[6]
  % inhibition: 58%

## 547085 (e[5mC]*e[5mC]*eA*eG*eG*dT*dG*d[5mC]*dA*dG*d[5mC]*dA*d[5mC]*dG*dG*eA*eG*eA*eG*eG; antisense) [compound 547085]
[4]
  % inhibition: 44%

## 547444 (antisense e[5mC]*eT*eA*eT*eA*dG*dA*dT*dG*d[5mC]*dG*d[5mC]*d[5mC]*dA*dA*eA*e[5mC]*eA*eT*e[5mC]) [compound 547444]
Table 8, HepaRG cells, electroporation with 5,000 nM antisense oligonucleotide, approx. 24 hours, PKK mRNA by RT-PCR (RTS3454), relative to untreated control cells
  % inhibition: 71%

## 546157 (eG*eG*eG*eT*eG*dG*dA*dA*dT*dG*dT*dG*d[5mC]*dA*d[5mC]*e[5mC]*eT*e[5mC]*eA*eT; antisense) [compound 546157]
[2]
  % inhibition: 85%

## 546348 (antisense eG*e[5mC]*eA*eA*eA*d[5mC]*dT*dA*dA*dG*dG*dG*dA*d[5mC]*d[5mC]*eA*e[5mC]*e[5mC]*eT*eG) [compound 546348]
[7]
  % inhibition: 79%
[8]
  % inhibition: 76%

## 547082 (eT*e[5mC]*eT*e[5mC]*e[5mC]*d[5mC]*dT*dG*dA*dG*dT*d[5mC]*dA*d[5mC]*dA*eG*eT*eG*eG*eA; antisense) [compound 547082]
[4]
  % inhibition: 64%

## 547776 (antisense eG*eG*eA*eG*eA*dG*dA*dG*dA*d[5mC]*dG*dG*d[5mC]*dA*d[5mC]*e[5mC]*e[5mC]*eT*eG*eT) [compound 547776]
[4]
  % inhibition: 48%

## 546340 (antisense eT*eA*eA*eT*e[5mC]*dT*dT*dG*dA*dT*dA*dT*d[5mC]*dT*dT*eT*eT*e[5mC]*eT*eG) [compound 546340]
[7]
  % inhibition: 30%
[8]
  % inhibition: 56%

## 547706 (antisense eT*eG*e[5mC]*e[5mC]*eT*d[5mC]*d[5mC]*dT*dG*dG*d[5mC]*dA*dG*d[5mC]*d[5mC]*eT*eT*e[5mC]*eA*eA) [compound 547706]
HepaRG cells, 5,000 nM antisense oligonucleotide, 5-10-5 gapmers, Table 16
  % inhibition: 73%

## 546497 (e[5mC]*eA*eT*eG*e[5mC]*dA*dT*dA*d[5mC]*dT*d[5mC]*dG*d[5mC]*d[5mC]*dT*eT*eT*eG*eT*eG; antisense) [compound 546497]
[3]
  % inhibition: 56%

## 547049 (e[5mC]*eA*e[5mC]*eT*eT*d[5mC]*d[5mC]*d[5mC]*dA*dG*d[5mC]*dA*dA*d[5mC]*d[5mC]*e[5mC]*eT*e[5mC]*eA*e[5mC]; antisense) [compound 547049]
[4]
  % inhibition: 20%

## 547764 (antisense e[5mC]*e[5mC]*eA*e[5mC]*e[5mC]*dT*dT*d[5mC]*dT*dT*dA*d[5mC]*dA*dT*dA*eT*eG*e[5mC]*eT*eA) [compound 547764]
[4]
  % inhibition: 24%

## 546908 (eT*e[5mC]*eA*e[5mC]*eT*dG*dT*dA*d[5mC]*d[5mC]*dT*dA*dT*dA*dA*e[5mC]*eT*eA*eT*eA; antisense) [compound 546908]
[1]
  % inhibition: 77%

## 546873 (e[5mC]*eA*eA*eT*eA*dT*d[5mC]*dA*d[5mC]*dT*dG*dT*dA*d[5mC]*d[5mC]*eT*eA*eT*eA*eA; antisense) [compound 546873]
[5]
  % inhibition: 34%

## 547367 (eA*eT*e[5mC]*eT*eG*dG*dA*dG*dT*dG*dA*dG*dA*dA*d[5mC]*e[5mC]*e[5mC]*eT*eG*eG; antisense) [compound 547367]
[9]
  % inhibition: 76%

## 547279 (antisense eA*eA*eA*eA*e[5mC]*dA*d[5mC]*dA*dA*dT*dT*dG*d[5mC]*dT*dT*e[5mC]*eT*eT*eG*eG) [compound 547279]
[2]
  % inhibition: 69%

## 547573 (eT*eA*eA*eG*e[5mC]*dA*dA*dG*dG*d[5mC]*d[5mC]*dT*dA*dT*dG*eT*eG*eT*eG*eG; antisense) [compound 547573]
[10]
  % inhibition: 2%

## 547332 (antisense e[5mC]*eG*eA*eT*eG*dG*d[5mC]*dA*dA*dG*d[5mC]*dA*d[5mC]*dT*dT*eA*eT*eT*eT*eG) [compound 547332]
[11]
  % inhibition: 44%

## 546831 (eT*e[5mC]*eT*eA*eA*d[5mC]*dA*dG*dT*dA*dT*d[5mC]*dA*d[5mC]*dT*eG*eT*eA*e[5mC]*eT; antisense) [compound 546831]
[10]
  % inhibition: 79%

## 547383 (eT*eT*e[5mC]*eT*eT*dT*dG*dT*dG*dA*d[5mC]*dT*d[5mC]*dG*dA*eT*eT*eT*eT*e[5mC]; antisense) [compound 547383]
[9]
  % inhibition: 37%

## 546796 (eG*eT*eA*e[5mC]*eT*d[5mC]*dA*d[5mC]*d[5mC]*dG*dG*dT*dA*d[5mC]*dT*e[5mC]*eT*eG*e[5mC]*e[5mC]; antisense) [compound 546796]
[10]
  % inhibition: 82%

## 546228 (antisense eG*eT*eG*eA*e[5mC]*dT*d[5mC]*dG*dA*dT*dT*dT*dT*d[5mC]*d[5mC]*eA*eT*eA*e[5mC]*eA) [compound 546228]
[9]
  % inhibition: 60%

## 547635 (eT*eA*eT*e[5mC]*eA*d[5mC]*dT*dG*dT*dA*d[5mC]*dT*dA*dG*dT*eT*eT*eT*e[5mC]*eT; antisense) [compound 547635]
[1]
  % inhibition: 53%

## 547551 (antisense eT*e[5mC]*e[5mC]*e[5mC]*e[5mC]*dA*dT*dG*d[5mC]*dA*dT*dA*d[5mC]*dT*d[5mC]*eG*e[5mC]*e[5mC]*eT*eT) [compound 547551]
[3]
  % inhibition: 38%

## 546393 (eT*e[5mC]*eT*e[5mC]*eA*dG*dT*dT*dG*d[5mC]*dG*dA*d[5mC]*d[5mC]*dT*e[5mC]*eG*e[5mC]*eA*eT; antisense) [compound 546393]
[6]
  % inhibition: 77%

## 547525 (antisense e[5mC]*e[5mC]*eT*e[5mC]*eG*d[5mC]*dA*dT*dT*dG*dT*d[5mC]*dA*dG*d[5mC]*e[5mC]*e[5mC]*e[5mC]*eT*eG) [compound 547525]
[6]
  % inhibition: 78%

## 546328 (antisense eG*eA*eA*eG*e[5mC]*d[5mC]*d[5mC]*d[5mC]*dA*dT*d[5mC]*d[5mC]*dG*dG*dT*eT*eA*e[5mC]*e[5mC]*e[5mC]) [compound 546328]
[7]
  % inhibition: 84%
[8]
  % inhibition: 81%

## 546886 (e[5mC]*eT*eA*eT*eG*dT*d[5mC]*dA*d[5mC]*dT*dG*dT*dA*d[5mC]*d[5mC]*eT*eA*eT*eA*eA; antisense) [compound 546886]
[1]
  % inhibition: 80%

## 547550 (antisense e[5mC]*e[5mC]*e[5mC]*e[5mC]*eA*dT*dG*d[5mC]*dA*dT*dA*d[5mC]*dT*d[5mC]*dG*e[5mC]*e[5mC]*eT*eT*eT) [compound 547550]
[3]
  % inhibition: 53%

## 547649 (eA*e[5mC]*e[5mC]*eT*eA*dT*dA*dA*d[5mC]*dA*dG*dT*dA*dT*d[5mC]*eA*e[5mC]*eT*eG*eT; antisense) [compound 547649]
[1]
  % inhibition: 73%

## 546196 (antisense e[5mC]*eA*e[5mC]*eT*eG*d[5mC]*dT*dA*dA*d[5mC]*d[5mC]*dT*dT*dA*dG*eA*e[5mC]*eA*e[5mC]*eA) [compound 546196]
[11]
  % inhibition: 83%

## 547624 (antisense eA*eT*eG*eT*e[5mC]*dA*d[5mC]*dT*dG*dT*dA*d[5mC]*d[5mC]*dT*dA*eT*eA*eA*e[5mC]*eT) [compound 547624]
[5]
  % inhibition: 64%

## 547326 (antisense eA*eT*eG*eA*e[5mC]*d[5mC]*dA*d[5mC]*dA*dT*dT*dG*d[5mC]*dT*dT*e[5mC]*eA*eA*eG*eG) [compound 547326]
[11]
  % inhibition: 48%
